Assay results: patent publication US20060281763A1, “Carboxamide inhibitors of TGFbeta” (priority 2005, published 2006)

target: T1, TGFβ R1 (Homo sapiens, UniProt P36897); test: TGFβ R1 autophosphorylation protocol (33P-ATP, phosphocellulose filter plate); assay type: biochemical; settings: 10 uM ATP, 170 nM TGFβ R1, 20 minutes at room temperature, read-out: IC50 for Kinase Inhibition
T1 sequence (P36897 34-503): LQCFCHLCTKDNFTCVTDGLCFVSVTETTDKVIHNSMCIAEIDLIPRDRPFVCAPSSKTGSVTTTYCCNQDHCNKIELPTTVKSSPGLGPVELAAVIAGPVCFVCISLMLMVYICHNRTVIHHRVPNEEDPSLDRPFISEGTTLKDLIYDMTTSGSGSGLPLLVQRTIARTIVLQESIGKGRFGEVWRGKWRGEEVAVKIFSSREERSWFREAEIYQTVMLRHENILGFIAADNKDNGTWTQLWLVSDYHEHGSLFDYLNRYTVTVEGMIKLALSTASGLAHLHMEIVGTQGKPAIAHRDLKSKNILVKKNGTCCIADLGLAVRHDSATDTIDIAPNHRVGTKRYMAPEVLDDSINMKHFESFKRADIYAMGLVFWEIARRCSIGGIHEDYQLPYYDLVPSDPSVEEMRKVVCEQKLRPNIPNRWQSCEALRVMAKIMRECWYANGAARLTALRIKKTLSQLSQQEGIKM
In short: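 Radiometric autophosphorylation: 170 nM enzyme with compound (≤1% DMSO), 10 uM ATP plus γ-33P-ATP, […] in 20 mM MOPS pH 7, 20 min at room temperature. Reaction stopped on phosphocellulose filter, washed with H3PO4 and ethanol, counted by scintillation.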

SMILES | IC50 [nM]
COc1cnc(-c2cc(Cl)ccc2F)nc1Nc1ccncc1C(=O)N[C@@H]1CCOC1=O [Compound 62, 4-[2-(5-Chloro-2-fluoro-phenyl)-5-methoxy-pyrimidin-4-ylamino]-N-(2-oxo-tetrahydro-furan-3-yl)-nicotinamide] | 360
COc1cnc(-c2cc(Cl)ccc2F)nc1Nc1ccncc1C(=O)N[C@H]1CN[C@@H](C(=O)N(C)C)C1 [Compound 107, 4-[2-(5-Chloro-2-fluoro-phenyl)-5-methoxy-pyrimidin-4-ylamino]-N-(5-dimethylcarbamoyl-pyrrolidin-3-yl)-nicotinamide] | 90
COc1cnc(-c2cc(Cl)ccc2F)nc1Nc1ccncc1C(=O)NC1CCN(C(=O)OC(C)(C)C)C1 (stereo not shown) [Compound 82, 3-((4-[2-(5-Chloro-2-fluoro-phenyl)-5-methoxy-pyrimidin-4-ylamino]-pyridine-3-carbonyl)-amino)-pyrrolidine-1-carboxylic acid tert-butyl ester] | 310
CC(C)NCCNC(=O)c1cnccc1Nc1nc(-c2cc(Cl)ccc2F)ncc1N1CCCC1 [Compound 23, 4-[2-(5-Chloro-2-fluoro-phenyl)-5-pyrrolidin-1-yl-pyrimidin-4-ylamino]-N-(2-isopropylamino-ethyl)-nicotinamide] | 200
COc1cnc(-c2cc(Cl)ccc2F)nc1Nc1ccncc1C(=O)NC[C@H]1O[C@@H](O)[C@H](O)[C@@H](O)[C@@H]1O [Compound 34, 4-[2-(5-Chloro-2-fluoro-phenyl)-5-methoxy-pyrimidin-4-ylamino)-N-(3,4,5,6-tetahydroxy-tetrahrydro-pyran-2-ylmethyl)-nicotinamide] | 1160
COc1cnc(-c2cc(Cl)ccc2F)nc1Nc1ccncc1C(=O)N1CCNCC1 [Compound 117, {4-[2-(5-Chloro-2-fluoro-phenyl)-5-methoxy-pyrimidin-4-ylamino]-pyridin-3-yl}-piperazin-1-yl-methanone] | 6780
COc1cnc(-c2cc(Cl)ccc2F)nc1Nc1ccncc1C(=O)NCCCNC(=O)Nc1ccc2c(c1)OCO2 [Compound 76, N-[3-(3-Benzo[1,3]dioxol-5-yl-ureido)-propyl]-4-[2-(5-chloro-2-fluoro-phenyl)-5-methoxy-pyrimidin-4-ylamino]-nicotinamide] | 320
CC(C)c1cnc(-c2cc(Cl)ccc2F)nc1Nc1ccncc1C(=O)NC1CNC1 [Compound 111, N-Azetidin-3-yl-4-[2-(5-chloro-2-fluoro-phenyl)-5-isopropyl-pyrimidin-4-ylamino]-nicotinamide] | 20
COc1cnc(-c2cc(Cl)ccc2F)nc1Nc1ccncc1C(=O)NCCNCC(C)(C)O [Compound 112, 4-[2-(5-Chloro-2-fluoro-phenyl)-5-methoxy-pyrimidin-4-ylamino]-N-[2-(2-hydroxy-2-methyl-propylamino)-ethyl]-nicotinamide] | 90
COc1cnc(-c2cc(Cl)ccc2F)nc1Nc1ccncc1C(=O)NCC1CCCC[C@H]1O (stereo in doubt) [Compound 31, 4-[2-(5-Chloro-2-fluoro-phenyl)-5-methoxy-pyrimidin-4-ylamino]-N-(2-hydroxy-cyclohexylmethyl)-nicotinamide] | 370
COc1cnc(-c2cc(Cl)ccc2F)nc1Nc1ccncc1C(=O)NCCCN/C(=N/C#N)N1CCC1 [Compound 44] | 130
COc1cnc(-c2cc(Cl)ccc2F)nc1Nc1ccncc1C(=O)NCCCN/C(=N/C#N)N1CCOCC1 [Compound 43] | 60
CC(C)c1cnc(-c2cc(Cl)ccc2F)nc1Nc1ccncc1C(=O)N[C@H]1CCC[C@@H]1O [Compound 83, 4-[2-(5-Chloro-2-fluoro-phenyl)-5-isopropyl-pyrimidin-4-ylamino)-N-(2-hydroxy-cyclopentyl)-nicotinamide] | 230

More lines, now with the values ahead:

IC50 [nM] | SMILES
19 | COc1cnc(-c2cc(Cl)ccc2F)nc1Nc1ccncc1C(=O)NCCCN(CCC1O[C@H](CO)[C@@H](O)[C@H](O)[C@@H]1O)C(C)C (stereo partly shown) [Compound 153, 4-[2-(5-Chloro-2-fluoro-phenyl)-5-methoxy-pyrimidin-4-ylamino]-N-(3-{isopropyl-[2-(3,4,5-trihydroxy-6-hydroxymethyl-tetrahydro-pyran-2-yl)-ethyl]-amino}-propyl)-nicotinamide]
12 | COc1cnc(-c2cc(Cl)ccc2F)nc1Nc1ccncc1C(=O)NCCCNCCOC1O[C@H](CO)[C@@H](O)[C@H](O)[C@H]1O (stereo partly shown) [Compound 134, 4-[2-(5-Chloro-2-fluoro-phenyl)-5-methoxy-pyrimidin-4-ylamino]-N-{3-[2-(3,4,5-trihydroxy-6-hydroxymethyl-tetrahydro-pyran-2-yloxy)-ethylamino]-propyl}-nicotinamide]
8 | COc1cnc(-c2cc(Cl)ccc2F)nc1Nc1ccncc1C(=O)NCCCN1CC[C@@H](F)C1 [Compound 155, 4-[2-(5-Chloro-2-fluoro-phenyl)-5-methoxy-pyrimidin-4-ylamino]-N-[3-(3-fluoro-pyrrolidin-1-yl)-propyl]-nicotinamide]
28 | COc1cnc(-c2cc(Cl)ccc2F)nc1Nc1ccncc1C(=O)NC1CCN(CCC2O[C@H](CO)[C@@H](O)[C@H](O)[C@@H]2O)CC1 (stereo partly shown) [Compound 152, 4-[2-(5-Chloro-2-fluoro-phenyl)-5-methoxy-pyrimidin-4-ylamino]-N-{1-[2-(3,4,5-trihydroxy-6-hydroxymethyl-tetrahydro-pyran-2-yl)-ethyl]-piperidin-4-yl}-nicotinamide]
102 | COc1cnc(-c2cc(Cl)ccc2F)nc1Nc1ccncc1C(=O)NCCCNC(=O)CC1O[C@H](CO)[C@@H](O)[C@H](O)[C@H]1O (stereo partly shown) [Compound 146]
190 | CONC(=O)c1cnccc1Nc1nc(-c2cc(Cl)ccc2F)ncc1OC [Compound 120, 4-[2-(5-Chloro-2-fluoro-phenyl)-5-methoxy-pyrimidin-4-ylamino]-N-methoxy-nicotinamide]
53 | CNC(=O)[C@@H]1CCCN1CCCNC(=O)c1cnccc1Nc1nc(-c2cc(Cl)ccc2F)ncc1OC [Compound 122, 4-[2-(5-Chloro-2-fluoro-phenyl)-5-methoxy-pyrimidin-4-ylamino]-N-[3-(2-methylcarbamoyl-pyrrolidin-1-yl)-propyl]-nicotinamide]
4 | COc1cnc(-c2cc(Cl)ccc2F)nc1Nc1ccncc1C(=O)NCCNCCC1O[C@H](CO)[C@@H](O)[C@H](O)[C@@H]1O (stereo partly shown) [Compound 151]

same assay, conditions: 10 uM ATP, 170 nM TGFβ R1, room temperature 20 minutes, read-out: IC50 for Kinase Inhibition

IC50 [nM] | SMILES
11 | CNC(=O)[C@@H]1CCCN1CCCNC(=O)c1cnccc1Nc1nc(-c2cc(Cl)ccc2F)ncc1C(C)C [Compound 177, 4-[2-(5-Chloro-2-fluoro-phenyl)-5-isopropyl-pyrimidin-4-ylamino]-N-[3-(2-methylcarbamoyl-pyrrolidin-1-yl)-propyl]-nicotinamide]
675 | COc1cnc(-c2cc(Cl)ccc2F)nc1Nc1cc[n+]([O-])cc1C(=O)NC[C@H](C)O [Compound 197, 4-[2-(5-Chloro-2-fluoro-phenyl)-5-methoxy-pyrimidin-4-ylamino]-N-(2-hydroxy-propyl)-1-oxy-nicotinamide]
121 | CC(C)c1cnc(-c2cc(Cl)ccc2F)nc1Nc1ccncc1C(=O)N1CC[C@@H](F)C1 [Compound 210, {4-[2-(5-Chloro-2-fluoro-phenyl)-5-isopropyl-pyrimidin-4-ylamino]-pyridin-3-yl}-(3-fluoro-pyrrolidin-1-yl)-methanone]
5 | COc1cnc(-c2cc(Cl)ccc2F)nc1Nc1ccncc1C(=O)NCCNCC[C@@H]1O[C@H](CO)[C@@H](O)[C@H]1O [Compound 176, 4-[2-(5-Chloro-2-fluoro-phenyl)-5-methoxy-pyrimidin-4-ylamino]-N-{2-[2-(3,4-dihydroxy-5-hydroxymethyl-tetrahydro-furan-2-yl)-ethylamino]-ethyl}-nicotinamide]
74 | CC(C)OCCCNC(=O)c1cnccc1Nc1nc(-c2cc(Cl)ccc2F)ncc1C(C)C [Compound 189, 4-[2-(5-Chloro-2-fluoro-phenyl)-5-isopropyl-pyrimidin-4-ylamino]-N-(3-isopropoxy-propyl)-nicotinamide]
424 | COCC(COC)NC(=O)c1cnccc1Nc1nc(-c2cc(Cl)ccc2F)ncc1C(C)C [Compound 195, 4-[2-(5-Chloro-2-fluoro-phenyl)-5-isopropyl-pyrimidin-4-ylamino]-N-(2-methoxy-1-methoxymethyl-ethyl)-nicotinamide]
40 | CC(C)c1cnc(-c2cc(Cl)ccc2F)nc1Nc1ccncc1C(=O)N[C@H]1CCC[C@@H]1O (stereo in doubt) [Compound 235, 4-[2-(5-Chloro-2-fluoro-phenyl)-5-isopropyl-pyrimidin-4-ylamino]-N-(2-hydroxy-cyclopentyl)-nicotinamide]
1080 | COc1cnc(-c2cc(Cl)ccc2F)nc1Nc1ccncc1C(=O)NO [Compound 238, 4-[2-(5-Chloro-2-fluoro-phenyl)-5-methoxy-pyrimidine-4-ylamino]-N-hydroxy-nicotinamide]
249 | COc1cnc(-c2cc(Cl)ccc2F)nc1Nc1ccncc1C(=O)N1CC[C@H](F)C1 [Compound 220, {4-[2-(5-Chloro-2-fluoro-phenyl)-5-methoxy-pyrimidin-4-ylamino]-pyridin-3-yl}-(3-fluoro-pyrrolidin-1-yl)-methanone]
122 | CCOP(=O)(OCC)OC(C)(C)CNC(=O)c1cnccc1Nc1nc(-c2cc(Cl)ccc2F)ncc1C(C)C [Compound 192]
